Data published in ChEMBL document CHEMBL1201862, “PubChem BioAssay data set” (2004).
The source made the active and inactive calls. Rule as the data show it, for most assays here: actives have a measured IC50 and inactives only a lower limit.

Experiments:
Coagulation factor XII = Coagulation factor XII (Homo sapiens, UniProt P00748); assay type: functional;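 also: activated factor XIIa alpha cleaving a fluorogenic AMC peptide substrate; inhibitor potency from loss of enzyme activity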
[1] = target: Voltage-dependent T-type calcium channel subunit alpha-1H (Homo sapiens, UniProt O95180); assay: Cav3.2 T-type channel inhibitors, cell-based, synthetic library set 1, calcium flux (AID 493022); assay type: functional
Hexokinase = Hexokinase (Trypanosoma brucei, UniProt Q38C41); assay: Confirmation assay for inhibitors of Trypanosoma brucei hexokinase 1-Analogue-first series. [Related pubchem assays (depositor defined):AID1430, AID1632, AID2516, AID2560, AID2579, AID2600, AID449725, AID492951]; assay type: functional
[2] = target: T1, Alkaline phosphatase, tissue-nonspecific isozyme (Homo sapiens, UniProt P05186); assay: human TNAP enzyme inhibitors, SAR follow-up, biochemical, luminescent, dose response (AID 1056)
T1 sequence (P05186 whole entry): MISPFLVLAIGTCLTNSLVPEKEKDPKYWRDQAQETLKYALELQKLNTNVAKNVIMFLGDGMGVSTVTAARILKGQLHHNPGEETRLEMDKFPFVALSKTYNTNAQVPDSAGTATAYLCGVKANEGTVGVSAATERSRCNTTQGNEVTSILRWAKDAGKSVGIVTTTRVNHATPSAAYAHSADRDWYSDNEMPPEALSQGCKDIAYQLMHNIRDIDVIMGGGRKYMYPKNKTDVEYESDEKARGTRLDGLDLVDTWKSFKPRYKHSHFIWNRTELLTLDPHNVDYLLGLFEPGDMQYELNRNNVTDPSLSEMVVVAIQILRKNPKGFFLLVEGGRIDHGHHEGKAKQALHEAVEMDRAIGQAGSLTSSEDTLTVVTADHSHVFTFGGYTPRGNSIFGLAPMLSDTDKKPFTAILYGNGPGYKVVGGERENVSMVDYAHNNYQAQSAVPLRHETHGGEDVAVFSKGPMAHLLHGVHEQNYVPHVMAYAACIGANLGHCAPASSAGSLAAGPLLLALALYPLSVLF

[3] = target: Alkaline phosphatase, placental type (Homo sapiens, UniProt P05187); assay: PLAP enzyme inhibitors, confirmation, biochemical, luminescence (AID 1512); assay type: functional
Sequence of Alkaline phosphatase, placental type (P05187 whole entry): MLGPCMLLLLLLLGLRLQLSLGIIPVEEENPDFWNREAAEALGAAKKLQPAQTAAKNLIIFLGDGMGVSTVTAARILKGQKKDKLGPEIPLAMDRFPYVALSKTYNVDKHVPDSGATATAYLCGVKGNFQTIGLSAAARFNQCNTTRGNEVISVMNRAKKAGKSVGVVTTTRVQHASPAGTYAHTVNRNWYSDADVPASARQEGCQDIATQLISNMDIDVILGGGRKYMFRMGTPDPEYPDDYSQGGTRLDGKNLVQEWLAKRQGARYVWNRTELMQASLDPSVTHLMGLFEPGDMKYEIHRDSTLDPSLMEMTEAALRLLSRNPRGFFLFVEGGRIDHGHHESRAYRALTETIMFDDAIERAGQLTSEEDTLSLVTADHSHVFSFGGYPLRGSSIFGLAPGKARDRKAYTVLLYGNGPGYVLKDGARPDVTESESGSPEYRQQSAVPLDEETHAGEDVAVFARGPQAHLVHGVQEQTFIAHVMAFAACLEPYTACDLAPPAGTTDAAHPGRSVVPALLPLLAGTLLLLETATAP

Sequence of Voltage-dependent T-type calcium channel subunit alpha-1H (O95180 whole entry): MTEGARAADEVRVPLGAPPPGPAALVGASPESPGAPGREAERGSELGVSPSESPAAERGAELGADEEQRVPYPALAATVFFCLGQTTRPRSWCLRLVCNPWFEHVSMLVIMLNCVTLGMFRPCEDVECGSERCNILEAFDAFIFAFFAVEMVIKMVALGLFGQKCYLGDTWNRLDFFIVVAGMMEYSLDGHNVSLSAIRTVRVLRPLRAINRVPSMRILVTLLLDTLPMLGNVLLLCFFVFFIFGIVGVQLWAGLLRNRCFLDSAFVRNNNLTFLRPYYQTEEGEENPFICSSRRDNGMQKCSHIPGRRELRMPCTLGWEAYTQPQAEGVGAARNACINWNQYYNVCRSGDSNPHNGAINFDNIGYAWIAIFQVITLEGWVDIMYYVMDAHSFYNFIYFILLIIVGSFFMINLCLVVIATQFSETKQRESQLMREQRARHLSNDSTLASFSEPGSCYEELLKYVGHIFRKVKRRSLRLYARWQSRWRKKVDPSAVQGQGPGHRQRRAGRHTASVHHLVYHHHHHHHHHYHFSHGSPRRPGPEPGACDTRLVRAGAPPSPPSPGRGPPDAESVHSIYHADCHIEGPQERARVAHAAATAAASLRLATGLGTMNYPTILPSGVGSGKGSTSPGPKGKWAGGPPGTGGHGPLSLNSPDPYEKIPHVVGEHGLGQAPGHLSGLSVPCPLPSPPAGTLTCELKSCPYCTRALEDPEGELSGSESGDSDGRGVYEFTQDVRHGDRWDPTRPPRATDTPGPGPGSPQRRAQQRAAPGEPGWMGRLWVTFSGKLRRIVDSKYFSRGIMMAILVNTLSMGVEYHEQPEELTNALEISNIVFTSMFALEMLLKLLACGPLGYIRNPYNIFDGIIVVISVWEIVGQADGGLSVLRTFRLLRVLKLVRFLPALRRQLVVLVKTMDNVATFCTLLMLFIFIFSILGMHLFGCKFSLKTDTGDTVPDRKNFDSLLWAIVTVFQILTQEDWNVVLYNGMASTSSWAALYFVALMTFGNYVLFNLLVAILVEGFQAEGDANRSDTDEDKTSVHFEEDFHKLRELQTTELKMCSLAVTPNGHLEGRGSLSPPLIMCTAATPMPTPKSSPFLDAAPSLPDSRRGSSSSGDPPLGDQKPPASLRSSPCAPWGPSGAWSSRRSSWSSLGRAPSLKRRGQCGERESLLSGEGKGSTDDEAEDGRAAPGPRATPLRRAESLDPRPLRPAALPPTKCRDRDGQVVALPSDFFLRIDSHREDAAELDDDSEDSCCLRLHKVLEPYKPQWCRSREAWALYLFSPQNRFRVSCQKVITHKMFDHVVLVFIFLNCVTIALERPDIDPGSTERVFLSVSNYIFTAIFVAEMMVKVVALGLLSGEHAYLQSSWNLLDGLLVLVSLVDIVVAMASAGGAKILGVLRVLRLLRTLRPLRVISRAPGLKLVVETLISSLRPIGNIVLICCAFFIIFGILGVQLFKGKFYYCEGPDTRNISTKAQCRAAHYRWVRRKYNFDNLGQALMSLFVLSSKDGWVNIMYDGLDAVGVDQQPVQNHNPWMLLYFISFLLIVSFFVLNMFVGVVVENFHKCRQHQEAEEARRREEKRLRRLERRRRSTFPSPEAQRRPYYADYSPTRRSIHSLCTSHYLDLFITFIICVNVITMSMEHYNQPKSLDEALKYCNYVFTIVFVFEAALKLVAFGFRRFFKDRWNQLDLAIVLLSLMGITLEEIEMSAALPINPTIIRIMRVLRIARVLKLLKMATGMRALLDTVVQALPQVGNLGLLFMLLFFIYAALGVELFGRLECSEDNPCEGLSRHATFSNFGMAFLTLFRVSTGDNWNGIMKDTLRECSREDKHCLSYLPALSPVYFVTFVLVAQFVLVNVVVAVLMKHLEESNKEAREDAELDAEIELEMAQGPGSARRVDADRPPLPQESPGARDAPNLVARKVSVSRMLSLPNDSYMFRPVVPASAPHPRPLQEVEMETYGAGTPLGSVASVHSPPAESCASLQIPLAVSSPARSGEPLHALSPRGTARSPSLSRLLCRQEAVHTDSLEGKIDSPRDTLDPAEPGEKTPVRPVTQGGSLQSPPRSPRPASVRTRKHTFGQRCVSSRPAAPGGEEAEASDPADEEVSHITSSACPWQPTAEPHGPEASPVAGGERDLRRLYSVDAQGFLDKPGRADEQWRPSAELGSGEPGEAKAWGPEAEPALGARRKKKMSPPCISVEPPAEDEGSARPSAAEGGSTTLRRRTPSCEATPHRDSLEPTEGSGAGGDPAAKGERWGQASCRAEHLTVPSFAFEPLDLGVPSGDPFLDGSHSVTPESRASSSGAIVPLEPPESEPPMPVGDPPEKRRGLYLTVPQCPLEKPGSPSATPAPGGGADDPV
Sequence of Coagulation factor XII (P00748 20-372 limits assumed): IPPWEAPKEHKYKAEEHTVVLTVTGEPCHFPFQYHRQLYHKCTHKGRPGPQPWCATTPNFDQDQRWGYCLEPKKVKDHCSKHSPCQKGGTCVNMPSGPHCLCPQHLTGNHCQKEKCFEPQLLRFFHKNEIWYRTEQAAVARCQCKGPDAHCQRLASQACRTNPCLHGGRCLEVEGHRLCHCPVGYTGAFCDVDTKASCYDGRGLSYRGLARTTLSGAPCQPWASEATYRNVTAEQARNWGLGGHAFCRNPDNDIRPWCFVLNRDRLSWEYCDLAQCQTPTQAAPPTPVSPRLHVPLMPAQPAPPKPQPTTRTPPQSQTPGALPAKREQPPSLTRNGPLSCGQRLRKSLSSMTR
Sequence of Coagulation factor XII (P00748 373-615 limits assumed): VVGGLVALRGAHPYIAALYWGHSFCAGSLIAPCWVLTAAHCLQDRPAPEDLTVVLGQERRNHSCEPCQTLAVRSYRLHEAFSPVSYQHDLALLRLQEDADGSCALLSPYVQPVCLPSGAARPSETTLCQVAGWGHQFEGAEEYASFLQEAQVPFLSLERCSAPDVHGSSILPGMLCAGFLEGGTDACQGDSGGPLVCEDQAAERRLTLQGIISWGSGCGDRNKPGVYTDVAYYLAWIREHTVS
Sequence of Hexokinase (Q38C41 whole entry): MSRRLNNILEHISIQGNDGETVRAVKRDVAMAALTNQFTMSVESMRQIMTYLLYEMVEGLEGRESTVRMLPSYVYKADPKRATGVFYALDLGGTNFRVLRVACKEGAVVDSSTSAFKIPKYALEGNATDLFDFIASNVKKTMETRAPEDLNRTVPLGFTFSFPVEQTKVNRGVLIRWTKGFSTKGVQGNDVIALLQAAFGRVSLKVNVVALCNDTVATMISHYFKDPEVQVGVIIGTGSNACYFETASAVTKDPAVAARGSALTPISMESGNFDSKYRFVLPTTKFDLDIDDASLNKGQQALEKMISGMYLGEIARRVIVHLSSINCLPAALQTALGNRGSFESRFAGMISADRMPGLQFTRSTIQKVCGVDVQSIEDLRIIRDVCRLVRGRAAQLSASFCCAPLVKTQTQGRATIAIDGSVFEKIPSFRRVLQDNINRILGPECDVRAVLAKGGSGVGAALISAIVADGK

SMILES: c1ccc(-n2cccc2)c(N2CCCCC2)c1
- IC50 (Coagulation factor XII): > 50 µM (inactive)

SMILES: O=C(COc1ccccc1Cl)Nc1nnc(-c2ccc3c(c2)OCCO3)o1
- EC50 [1]: 3.1 µM (active)

SMILES: O=C(COc1ccccc1F)Nc1nnc(-c2ccc3c(c2)CCCC3)o1
- EC50 [1]: 1.7 µM (active)

SMILES: COc1ccc(C(=O)Nc2cccc(Cl)c2)cc1
- IC50 (Hexokinase): > 25 µM (inactive)

SMILES: CCCCN1C(=O)/C(=N\Nc2ccccc2Cl)c2ccccc21
- IC50 [2]: > 100 µM (inactive)
- IC50 [3]: 91.6 µM (active)

SMILES: C/C(Cc1ccccc1)=N\NC(=O)CNC(=O)c1ccc(Cl)cc1Cl
- IC50 (Coagulation factor XII): > 50 µM (inactive)

SMILES: O=C(CSc1nc2ccccc2[nH]1)c1ccc(O)c(O)c1
- IC50 [2]: 5.44 µM (active)
- IC50 [3]: 4.79 µM (active)
